Patent US4581231A (priority 1983, dated 1986)
Like-named read-outs stand apart in the source and are kept apart here.

What was measured:
Hepatitis B virus [1] = system: Hepatitis B virus; set-up: species or system rhesus monkeys; details: rhesus monkey, in vivo
[2] = system: non-A, non-B hepatitis virus (H strain)
Vaccinia Virus [3] = details: 10% (v/v) chloroform
Vaccinia virus [4] = details: for inactivation of vaccinia virus: dry product 20 minutes, Factor 8; for Percent Inactivation: Vaccinia, dry state 20 min, Factor VIII
Polio Virus Type 1 = details: 10% (v/v) chloroform
Vaccinia virus [5] = system: Vaccinia virus
Fibrinogen = details: Factorate
Experimental: (§1) Lyophilized Factor VIII (Factorate--Armour) was extracted with chloroform using three different procedures.
(§2) A. 1 gram of Factorate (dry powder) was mixed at 4° C. for 20 minutes with 20 ml of cold chloroform. The chloroform was then removed by filtration and the dry powder was washed on the filter with an additional 10 ml of cold chloroform.
(§3) B. 1 gram of Factorate (dry powder) was mixed with 10 ml of cold chloroform at 4° C. for 10 minutes. The chloroform was removed by filtration and the powder was washed on the filter with 5 ml of cold chloroform. This process was then repeated a second time.
(§4) C. 1 gram of Factorate (dry powder) was mixed with 20 ml of chloroform at room temperature for 20 minutes. The chloroform was removed by filtration and the dry powder was washed on the filter with 10 ml of chloroform at room temperature.

Factor VIII:c = details: Factorate
Experimental: as §1, §2, §3, §4

Fibronectin = details: Factorate
Experimental: as §1, §2, §3, §4

Avian influenza virus [6] = details: for Percent Inactivation: Influenza, dry state 20 min, Factor VIII
Hepatitis B virus [7] = details: in vivo
Avian influenza virus [8] = details: 10% (v/v) chloroform
[9] = preliminary, uncontrolled, 10^-2 dilution of H plasma, 5% v/v chloroform

CCOCC [ether, diethyl ether]
inactivation of the virus (Hepatitis B virus [1]): inactivated

ClC(Cl)Cl [Chloroform, chloroform]
inactivation of 10^4 chimpanzee infectious doses ([2]; 10^4 chimpanzee infectious doses of the H strain of NANB): inactivated | evidence of hepatitis ([2]; chimpanzee 947, following either chloroform-treated or sham-treated H plasma): no evidence of hepatitis | biochemical evidence of hepatitis (weekly ALT levels) ([2]; chimpanzees 889 and 947, chloroform-treated H plasma, 10% (v/v) chloroform): none of these animals developed biochemical evidence of hepatitis | incubation period [2, 9]: 9.5 weeks | infectivity after chloroform treatment [2, 9]: still infectious | virus titer (indicated by incubation period) [2, 9]: reduced | Virus Titer Log10 ID50 /0.1 ml after CHCl3 extraction (Vaccinia Virus [3]; Vaccinia virus in Fetal Calf Serum, 1:100, 10 min, room temperature): ≤ 0.5 Log10 ID50 /0.1 ml | reaction of control virus to chloroform treatment (Vaccinia Virus [3]; Vaccinia virus): totally inactivated | inactivation of vaccinia virus (Vaccinia virus [4]; 4°): not inactivated | inactivation of vaccinia virus (Vaccinia virus [4]; 20° and 40° C.): partially inactivated | Percent Inactivation (Vaccinia virus [4]; 4° C.): 0% | Percent Inactivation (Vaccinia virus [4]; 20° C.): 70% | Percent Inactivation (Vaccinia virus [4]; 40° C.): 70% | Virus Titer Log10 ID50 /0.1 ml after CHCl3 extraction (Polio Virus Type 1; Polio virus type 1 in Fetal Calf Serum, 1:100, 10 min, room temperature): 6.5 Log10 ID50 /0.1 ml | reaction of control virus to chloroform treatment (Polio Virus Type 1; poliovirus): essentially unaffected | Virus Titer Log10 ID50 /0.1 ml after CHCl3 extraction (coliphage .phi.×174): 9.0 Log10 ID50 /0.1 ml | reaction of control virus to chloroform treatment (coliphage .phi.×174): essentially unaffected | inactivation of vaccinia virus (Vaccinia virus [5]; after 20 minutes, dry state, room temperature (20° C.)): 90% | inactivation of vaccinia virus (Vaccinia virus [5]; after 2 hours, dry state, room temperature (20° C.)): 98% | inactivation of vaccinia virus (Vaccinia virus [5]; after 4 hours or more, dry state, room temperature (20° C.)): completely inactivated | inactivation of vaccinia virus (Vaccinia virus [5]; regardless whether in the liquid or dry state, longer time required when dry): completely inactivated | Fibrinogen (Fibrinogen; 4° C. 1 × Extracted (control 8.9 mg)): 9.3 mg/mL | Fibrinogen (Fibrinogen; 4° C. 2 × Extracted (control 8.9 mg)): 8.6 mg/mL | Fibrinogen (Fibrinogen; Room Temp. Extraction (control 8.9 mg)): 9.3 mg/mL | Factor VIII Units/ml (Factor VIII:c; 4° C. 1 × Extracted (control 9.1)): 8.9 Units/ml | Factor VIII Units/ml (Factor VIII:c; 4° C. 2 × Extracted (control 9.1)): 9.3 Units/ml | Factor VIII Units/ml (Factor VIII:c; Room Temp. Extraction (control 9.1)): 9.5 Units/ml | Fibronectin (Fibronectin; 4° C. 1 × Extracted (control 1.11 mg)): 1.19 mg/mL | Fibronectin (Fibronectin; 4° C. 2 × Extracted (control 1.11 mg)): 1.29 mg/mL | Fibronectin (Fibronectin; Room Temp. Extraction (control 1.11 mg)): 1.14 mg/mL | Percent Inactivation (Avian influenza virus [6]; 4° C.): 99.8% | Percent Inactivation (Avian influenza virus [6]; 20° C.): 90% | completeness of inactivation of avian influenza virus (Avian influenza virus [6]; dry product 20 minutes, Factor 8): inactivation was not complete | inactivation of avian influenza virus (Avian influenza virus [6]; dry product 20 minutes, Factor 8, similar conditions of treatment): 90-99.8% | anti-HBs / anti-HBc response (Hepatitis B virus [7]): did develop anti-HBs but not anti-HBc | biochemical evidence of hepatitis (weekly ALT levels) (Hepatitis B virus [7]): none of these animals developed biochemical evidence of hepatitis | reaction of control virus to chloroform treatment (Avian influenza virus [8]): totally inactivated | inactivation of the virus (Hepatitis B virus [1]): inactivated
